Experimental findings from patent US6495065B1, “Nitrosamine-inhibiting compositions for shortstopping of free radical emulsion polymerizations” (Atofina Chemicals, Inc., priority 1999, dated 2002) are described below.

SMILES strings stand for the structures.

The nature of the data set: Solubility in water.

In turn, `CCN(O)CC` [DEHA, diethylhydroxylamine] yielded a Solubility in water of approximately 85 wt. %. The result for `CC(C)NO` [NiPHA, N-isopropylhydroxylamine] reads approximately 15 wt. %.
